Experiments:
[1] = target: T1, Adrenergic β2 (Homo sapiens, UniProt P07550); assay: Adrenergic β2 mediated cAMP production in H292 cells, single concentration 1 μM; format: cell-based; conditions: NCI-H292, 1 μM compound, cAMP as percentage of the maximum response generated by 1E-07M formoterol, read-out: β2 % effect @1 uM
T1 construct: Adherent H292 cells are removed from tissue culture flasks by treatment with Accutase™ cell detachment solution; endogenous in cells; host or cells: H292 cells
Experimental: The following experimental procedure was used to measure the beta-2% effect at 1 μM for the compounds of Examples 99-175. Adrenergic p2 Mediated cAMP Production Cell Preparation
H292 cells are grown in 225 cm2 flasks incubator at 37° C., 5% CO2 in RPMI medium containing 10% (v/v) FBS (foetal bovine serum) and 2 mM L-glutamine.
Compounds are prepared by an initial first dilution into DMSO to give 1 mM stock concentration. This is followed by a 1 in 10 dilution of the stock concentration (10 μl stock compound +90 μl DMSO) to give 0.1 mM compound. A compound addition plate is prepared by making a further 1 in 25 dilution in assay buffer (HBSS solution containing 10 mM HEPES pH7.4 and 5 mM glucose) containing 4% dimethylsulfoxide. The final compound concentration in assay is 1 μM.
Adherent H292 cells are removed from tissue culture flasks by treatment with Accutase™ cell detachment solution for 15 minutes. Flasks are incubated for 15 minutes in a humidified incubator at 37° C., 5% CO2. Detached cells are re-suspended in RPMI media (containing 10% (v/v) FBS and 2 mM L-glutamine) at 0.1×10^6 cells per mL. 10000 cells in 100 μL are added to each well of a tissue-culture-treated 96-well plate and the cells incubated overnight in a humidified incubator at 37° C., 5% CO2. The culture media is removed and cells are washed twice with 100 μL assay buffer and replaced with 50 μL assay buffer (HBSS solution containing 10 mM HEPES pH7.4 and 5 mM glucose). Cells are rested at room temperature for 20 minutes after which time 25 μL of rolipram (1.2 mM made up in assay buffer) is added. Cells are incubated with rolipram for 10 minutes after which time 25 μl test compounds are added and the cells are incubated for 60 minutes at room temperature. The final rolipram concentration in the assay is 300 μM and final vehicle concentration is 1% (v/v) dimethylsulphoxide. The reaction is stopped by removing supernatants, washing once with 100 μL assay buffer and replacing with 50 μL lysis buffer. The cell monolayer is frozen at −80° C. for 30 minutes (or overnight).
AlphaScreen™ cAMP Detection
The concentration of cAMP (cyclic adenosine monophosphate) in the cell lysate is determined using AlphaScreen™ methodology. The frozen cell plate is thawed for 20 minutes on a plate shaker then 10 μL of the cell lysate is transferred to a 96-well white plate. 40 μl of mixed AlphaScreen™ detection beads (containing equal volumes of donor beads (pre-incubated with biotinylated cAMP in the dark for 30 minutes) and acceptor beads is added to each well and the plate incubated at room temperature for 3 hours in the dark. The AlphaScreen™ signal is measured using an EnVision spectrophotometer (Perkin-Elmer Inc.) with the recommended manufacturer's settings. Concentration of cAMP produced per well were calculated with reference to the cAMP standard curve determined in the same experiment and expressed as a percentage of the maximum response generated by 1E-07M formoterol.

[2] = target: T2, human muscarinic acetylcholine M3 receptor (Homo sapiens, UniProt P20309); assay: Muscarinic 3 receptor binding assay ([3H]NMS competition, SPA), single concentration 1 μM; conditions: 1 μM compound; % inhibition specific [3H]-NMS binding
T2 construct: expressed in transfected cells; host or cells: CHO-K1 (Chinese Hamster Ovary) cell membranes
Experimental: The following experimental procedure was used to determine the M3% inhibition at 1 μM of the compounds of Examples 99-175
Muscarinic 3 Receptor Binding Assay
The activity (% inhibition specific binding) of compounds on the M3 receptor is determined by competition binding of [^3H]N-methyl scopolamine (NMS) to CHO-K1 (Chinese Hamster Ovary) cell membranes expressing the human muscarinic acetylcholine M3 receptor (M3-ACh) in a scintillation proximity assay (SPA) format. SPA beads are precoated with membranes and then incubated at 2 mg of beads per well with 1 μM compound of the invention, [^3H]NMS at 0.1 nM, quarter Kd (experimentally determined dissociation constant) and assay buffer (20 mM HEPES pH 7.4 containing 5 mM MgCl2 and 0.1% (w/v) bovine serum albumin). The assay is conducted in a final volume of 200 μL, in the presence of 1% (v/v) dimethyl sulphoxide (DMSO). Total binding of [^3H]NMS is determined in the absence of competing compound and non-specific binding of [^3H]NMS is determined in the presence of 1 μM atropine. The plates are incubated for 16 hours at room temperature and then read on Wallac Microbeta™ using a normalised ^3H protocol. The compound activity at 1 μM, defined as % inhibition specific [^3H]-NMS binding, is determined.

T1 sequence (P07550 whole entry): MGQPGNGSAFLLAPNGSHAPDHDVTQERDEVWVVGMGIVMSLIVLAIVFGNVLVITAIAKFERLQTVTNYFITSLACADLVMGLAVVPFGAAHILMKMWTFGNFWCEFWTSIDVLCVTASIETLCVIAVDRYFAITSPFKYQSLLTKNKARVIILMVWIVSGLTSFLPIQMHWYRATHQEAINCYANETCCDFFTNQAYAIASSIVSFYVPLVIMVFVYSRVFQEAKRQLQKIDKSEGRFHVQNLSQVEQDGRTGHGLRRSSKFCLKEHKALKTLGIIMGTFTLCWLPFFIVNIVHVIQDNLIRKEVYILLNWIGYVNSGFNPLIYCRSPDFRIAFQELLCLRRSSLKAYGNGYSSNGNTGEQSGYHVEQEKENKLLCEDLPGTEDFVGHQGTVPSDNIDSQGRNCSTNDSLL
T2 sequence (P20309 whole entry): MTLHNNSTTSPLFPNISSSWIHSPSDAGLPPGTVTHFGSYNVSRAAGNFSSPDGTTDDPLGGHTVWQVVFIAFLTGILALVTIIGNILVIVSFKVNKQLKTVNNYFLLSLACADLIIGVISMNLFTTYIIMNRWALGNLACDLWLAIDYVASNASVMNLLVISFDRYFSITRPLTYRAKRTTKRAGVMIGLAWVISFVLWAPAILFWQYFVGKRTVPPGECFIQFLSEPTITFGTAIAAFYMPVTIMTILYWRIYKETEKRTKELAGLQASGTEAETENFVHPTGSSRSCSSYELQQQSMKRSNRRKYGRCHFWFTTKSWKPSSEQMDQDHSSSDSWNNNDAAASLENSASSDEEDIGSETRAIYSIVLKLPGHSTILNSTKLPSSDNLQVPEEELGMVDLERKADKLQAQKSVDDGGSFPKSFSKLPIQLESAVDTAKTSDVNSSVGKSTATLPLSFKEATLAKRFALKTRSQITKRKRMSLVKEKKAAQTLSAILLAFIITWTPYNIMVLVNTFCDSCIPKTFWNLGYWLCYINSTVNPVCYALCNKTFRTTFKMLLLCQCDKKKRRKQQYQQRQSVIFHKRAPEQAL

Question: What does the source list for `O=C1COc2c(CCNCCN(C(=O)CCOCCc3cccc(CN4CCC5(CC4)CN(C(=O)C4CC=CCC4)CCO5)c3)C3CCCCC3)ccc(O)c2N1` (stereo not drawn) [Example 105, 3-(3-((4-(Cyclohex-3-enecarbonyl)-1-oxa-4,9-diazaspiro[5.5]undecan-9-yl)methyl)phenethoxy)-N-cyclohexyl-N-(2-(2-(5-hydroxy-3-oxo-3,4-dihydro-2H-benzo[b][1,4]oxazin-8-yl)ethylamino)ethyl)propanamide]?
Answer: percent of formoterol maximum response at 1 µM [1]: 109%; inhibition at 1 µM [2]: 99%

Question: How did the percent of formoterol maximum response at 1 µM [1] turn out when `O=C1COc2c(CCNCCN(C(=O)CCOCCc3cccc(CN4CCC5(CC4)CN(C(=O)c4cc6cc(F)ccc6[nH]4)CCO5)c3)C3CCCCC3)ccc(O)c2N1` [Example 107, N-Cyclohexyl-3-(3-((4-(5-fluoro-1H-indole-2-carbonyl)-1-oxa-4,9-diazaspiro[5.5]undecan-9-yl)methyl)phenethoxy)-N-(2-(2-(5-hydroxy-3-oxo-3,4-dihydro-2H-benzo[b][1,4]oxazin-8-yl)ethylamino)ethyl)propanamide] was run?
Answer: 101%

Question: What about the inhibition at 1 µM [2] of the same compound?
Answer: 100%

Question: With `Cc1cc2ncc(C(=O)N3CCOC4(CCN(Cc5cccc(CCOCCC(=O)N(CCNCCc6ccc(O)c7c6OCC(=O)N7)C6CCCCC6)c5)CC4)C3)c(C)n2n1` [Example 108, N-Cyclohexyl-3-(3-((4-(2,7-dimethylpyrazolo[1,5-a]pyrimidine-6-carbonyl)-1-oxa-4,9-diazaspiro[5.5]undecan-9-yl)methyl)phenethoxy)-N-(2-(2-(5-hydroxy-3-oxo-3,4-dihydro-2H-benzo[b][1,4]oxazin-8-yl)ethylamino)ethyl)propanamide] as the compound, how does the percent of formoterol maximum response at 1 µM [1] read?
Answer: 98%

Question: And the inhibition at 1 µM [2]?
Answer: 80%

Question: What does the source list for `O=C1COc2c(CCNCCN(C(=O)CCOCCc3cccc(CN4CCC5(CC4)CN(C(=O)Cc4ccsc4)CCO5)c3)C3CCCCC3)ccc(O)c2N1` [Example 109, N-Cyclohexyl-N-(2-(2-(5-hydroxy-3-oxo-3,4-dihydro-2H-benzo[b][1,4]oxazin-8-yl)ethylamino)ethyl)-3-(3-((4-(2-(thiophen-3-yl)acetyl)-1-oxa-4,9-diazaspiro[5.5]undecan-9-yl)methyl)phenethoxy)propanamide]?
Answer: percent of formoterol maximum response at 1 µM [1]: 98%; inhibition at 1 µM [2]: 99%

Question: How did the percent of formoterol maximum response at 1 µM [1] turn out when `O=C1COc2c(CCNCCN(C(=O)CCOCCc3cccc(CN4CCC5(CC4)CN(C(=O)c4cccc(F)c4F)CCO5)c3)C3CCCCC3)ccc(O)c2N1` [Example 110, N-Cyclohexyl-3-(3-((4-(2,3-difluorobenzoyl)-1-oxa-4,9-diazaspiro[5.5]undecan-9-yl)methyl)phenethoxy)-N-(2-(2-(5-hydroxy-3-oxo-3,4-dihydro-2H-benzo[b][1,4]oxazin-8-yl)ethylamino)ethyl)propanamide] was run?
Answer: 99%

Question: What about the inhibition at 1 µM [2] of the same compound?
Answer: 100%

Question: What does the source list for `CCOc1ccccc1C(=O)N1CCOC2(CCN(Cc3cccc(CCOCCC(=O)N(CCNCCc4ccc(O)c5c4OCC(=O)N5)C4CCCCC4)c3)CC2)C1` [Example 111, N-Cyclohexyl-3-(3-((4-(2-ethoxybenzoyl)-1-oxa-4,9-diazaspiro[5.5]undecan-9-yl)methyl)phenethoxy)-N-(2-(2-(5-hydroxy-3-oxo-3,4-dihydro-2H-benzo[b][1,4]oxazin-8-yl)ethylamino)ethyl)propanamide]?
Answer: percent of formoterol maximum response at 1 µM [1]: 107%; inhibition at 1 µM [2]: 96%

Question: For `O=C1COc2c(CCNCCN(C(=O)CCOCCc3cccc(CN4CCC5(CC4)CN(C(=O)c4ccc(-n6cccn6)nc4)CCO5)c3)C3CCCCC3)ccc(O)c2N1` [Example 112, 3-(3-((4-(6-(1H-Pyrazol-1-yl)nicotinoyl)-1-oxa-4,9-diazaspiro[5.5]undecan-9-yl)methyl)phenethoxy)-N-cyclohexyl-N-(2-(2-(5-hydroxy-3-oxo-3,4-dihydro-2H-benzo[b][1,4]oxazin-8-yl)ethylamino)ethyl)propanamide], which percent of formoterol maximum response at 1 µM [1] is on record?
Answer: 105%

Question: What about the inhibition at 1 µM [2] of the same compound?
Answer: 98%

Question: Which results are given for `O=C1COc2c(CCNCCN(C(=O)CCOCCc3cccc(CN4CCC5(CC4)CN(C(=O)C4(c6ccccc6)CC4)CCO5)c3)C3CCCCC3)ccc(O)c2N1` [Example 113, N-Cyclohexyl-N-(2-(2-(5-hydroxy-3-oxo-3,4-dihydro-2H-benzo[b][1,4]oxazin-8-yl)ethylamino)ethyl)-3-(3-((4-(1-phenylcyclopropanecarbonyl)-1-oxa-4,9-diazaspiro[5.5]undecan-9-yl)methyl)phenethoxy)propanamide]?
Answer: percent of formoterol maximum response at 1 µM [1]: 112%; inhibition at 1 µM [2]: 100%

Question: Which results are given for `COC1CCCC(C(=O)N2CCOC3(CCN(Cc4cccc(CCOCCC(=O)N(CCNCCc5ccc(O)c6c5OCC(=O)N6)C5CCCCC5)c4)CC3)C2)C1` (stereo not drawn) [Example 114, N-Cyclohexyl-N-(2-(2-(5-hydroxy-3-oxo-3,4-dihydro-2H-benzo[b][1,4]oxazin-8-yl)ethylamino)ethyl)-3-(3-((4-(3-methoxycyclohexanecarbonyl)-1-oxa-4,9-diazaspiro[5.5]undecan-9-yl)methyl)phenethoxy)propanamide]?
Answer: percent of formoterol maximum response at 1 µM [1]: 106%; inhibition at 1 µM [2]: 100%

Question: Which results are given for `O=C1COc2c(CCNCCN(C(=O)CCOCCc3cccc(CN4CCC5(CC4)CN(C(=O)CC46CC7CC(CC(O)(C7)C4)C6)CCO5)c3)C3CCCCC3)ccc(O)c2N1` [Example 116, N-Cyclohexyl-3-[2-[3-[[10-[2-(3-hydroxy-1-adamantyl)acetyl]-7-oxa-3,10-diazaspiro[5.5]undecan-3-yl]methyl]phenyl]ethoxy]-N-[2-[2-(5-hydroxy-3-oxo-4H-1,4-benzoxazin-8-yl)ethylamino]ethyl]propanamide]?
Answer: percent of formoterol maximum response at 1 µM [1]: 80%; inhibition at 1 µM [2]: 94%

Question: `Cc1nc2cc(C(=O)N3CCOC4(CCN(Cc5cccc(CCOCCC(=O)N(CCNCCc6ccc(O)c7c6OCC(=O)N7)C6CCCCC6)c5)CC4)C3)ccc2[nH]1` [Example 117, N-Cyclohexyl-N-(2-(2-(5-hydroxy-3-oxo-3,4-dihydro-2H-benzo[b][1,4]oxazin-8-yl)ethylamino)ethyl)-3-(3-((4-(2-methyl-1H-benzo[d]imidazole-5-carbonyl)-1-oxa-4,9-diazaspiro[5.5]undecan-9-yl)methyl)phenethoxy)propanamide] was tested. Which percent of formoterol maximum response at 1 µM [1] did it give?
Answer: 90%

Question: What about the inhibition at 1 µM [2] of the same compound?
Answer: 99%

Question: With `Cc1ncc(Br)cc1C(=O)N1CCOC2(CCN(Cc3cccc(CCOCCC(=O)N(CCNCCc4ccc(O)c5c4OCC(=O)N5)C4CCCCC4)c3)CC2)C1` [Example 118, 3-(3-((4-(5-Bromo-2-methylnicotinoyl)-1-oxa-4,9-diazaspiro[5.5]undecan-9-yl)methyl)phenethoxy)-N-cyclohexyl-N-(2-(2-(5-hydroxy-3-oxo-3,4-dihydro-2H-benzo[b][1,4]oxazin-8-yl)ethylamino)ethyl)propanamide] as the compound, how does the percent of formoterol maximum response at 1 µM [1] read?
Answer: 97%

Question: What about the inhibition at 1 µM [2] of the same compound?
Answer: 96%

Source: patent publication US8476265B2, “Compounds-801” (AstraZeneca AB, priority 2010, dated 2013)
